Measurements as given in PubChem BioAssay AID1259407 (Chemical Carcinogenesis Research Information System (CCRIS), 2018).
Calls of active or inactive are those of the source. No rule for the calls is given here.

Test system: CCRIS mutagenicity, Ames/micronucleus/aberration tests
Assay: CCRIS mutagenicity studies

Measured: mutagenic call

CN(C)c1ccc(N=Nc2cccc3ccccc23)cc1
active: Test System: AMES SALMONELLA TYPHIMURIUM, Strain/Indicator: TA98, Metabolic Activation: HAMSTER, LIVER, S-9, AROCLOR 1254, Method: STANDARD PLATE active; positive | Test System: AMES SALMONELLA TYPHIMURIUM, Strain/Indicator: TA98, Metabolic Activation: HAMSTER, LIVER, S-9, Method: PREINCUBATION (PRIVAL METHOD) active; positive | Test System: AMES SALMONELLA TYPHIMURIUM, Strain/Indicator: TA98, Metabolic Activation: RAT, LIVER, S-9, AROCLOR 1254, HAMSTER, LIVER, S-9, AROCLOR 1254, Method: STANDARD PLATE active; positive | Test System: AMES SALMONELLA TYPHIMURIUM, Strain/Indicator: TA100, Metabolic Activation: HAMSTER, LIVER, S-9, AROCLOR 1254, Method: STANDARD PLATE active; positive | Test System: AMES SALMONELLA TYPHIMURIUM, Strain/Indicator: TA100, Metabolic Activation: HAMSTER, LIVER, S-9, Method: PREINCUBATION (PRIVAL METHOD) active; positive | Test System: AMES SALMONELLA TYPHIMURIUM, Strain/Indicator: TA1535, Metabolic Activation: RAT, LIVER, S-9, AROCLOR 1254, HAMSTER, LIVER, S-9, AROCLOR 1254, Method: STANDARD PLATE active; positive | Test System: AMES SALMONELLA TYPHIMURIUM, Strain/Indicator: TA1538, Metabolic Activation: RAT, LIVER, S-9, AROCLOR 1254, HAMSTER, LIVER, S-9, AROCLOR 1254, Method: STANDARD PLATE active; positive | Test System: MOUSE LYMPHOMA, Strain/Indicator: L5178Y (TK+/TK-), Metabolic Activation: RAT, LIVER, S-9, AROCLOR 1254, Method: SUSPENSION/PLATE active; positive. reevaluation of results: positive | Test System: Mouse lymphoma, Strain/Indicator: L5178Y (tk+/tk-), Metabolic Activation: None, Method: Suspension/plate active; positive
